# Reference: publication PMC10179937, “Cytotoxic Activity, Topoisomerase I Inhibition and In Silico Studies of New Sesquiterpene-aryl Ester Derivatives of (-) Drimenol” (Molecules, 2023)
# Read-outs that look alike come from different tables or passages of the source.
# Tests used:
# [1] = Sulforhodamine B in vitro growth inhibition assay, MCF-7; type: cell-based, human; details: human; ratio of selectivity versus 5-FU; read-out: more selective than 5-FU in MCF-7
# Procedure: (§1) For this purpose, a colorimetric sulforhodamine B assay was performed to quantify the cytotoxic effect through their respective IC50 values. Each compound’s serial dilutions (12.5, 25, 50, and 100 µM) were evaluated in triplicate. In our study, the human cancer cell lines used were MCF-7 (breast adenocarcinoma); HT-29 (colorectal adenocarcinoma); PC-3 (prostate adenocarcinoma); and MCF-10 control cells (normal breast epithelium). For comparative purposes, the literature IC50 values of daunorubicin and 5-fluorouracil (5-FU), measured in the same cell lines and under the same experimental conditions, were included. Similarly, drimenol (1) was included for comparative purposes.
# (§2) The sulforhodamine B assay was used. Briefly, the cells were set up at 5 × 10^3 cells per well of a 96-well microplate for 18 h. Cells were incubated at 37 °C in a humidified 5% CO2/95% air mixture and treated with the compounds at different concentrations for 72 h. At the end of drug exposure, cells were fixed with 50% trichloroacetic acid at 4 °C. After washing with distilled water, cells were stained with 0.1% sulforhodamine B, dissolved in 1% acetic acid (50 μL/well) for 30 min, and, subsequently, washed with 1% acetic acid to remove the unbound stain. The protein-bound stain was solubilized with 100 μL of 10 mM unbuffered Tris base, and the cell density was determined using a […] (wavelength 540 nm). Results are expressed as IC50 values (μM) ± SD.
# [2] = test system: MCF-7 (breast adenocarcinoma); test: as above; type: cell-based, human; details: for Selectivity Index (SI) MCF-10/MCF-7: IC50 in non-cancerogenic cell line / IC50 in cancer cell line
# Procedure: as §1, §2
# [3] = test system: HT-29 (colorectal adenocarcinoma); test: Sulforhodamine B in vitro growth inhibition assay, HT-29; type: cell-based, human; details: for Selectivity Index (SI) MCF-10/HT-29: IC50 in non-cancerogenic cell line / IC50 in cancer cell line
# Procedure: as §1, §2
# [4] = Sulforhodamine B in vitro growth inhibition assay, PC-3; type: cell-based, human; details: human; ratio of selectivity versus 5-FU; read-out: more selective than 5-FU in PC-3
# Procedure: as §1, §2
# [5] = test system: PC-3 (prostate adenocarcinoma); test: as above; type: cell-based, human; details: for Selectivity Index (SI) MCF-10/PC-3: IC50 in non-cancerogenic cell line / IC50 in cancer cell line
# Procedure: as §1, §2
# [6] = test system: MCF-10 control cells (normal breast epithelium); test: Sulforhodamine B in vitro growth inhibition assay, MCF-10 control cells; type: cell-based; details: Homo sapiens, MCF10, 72 h of treatment, IC50 ± SD, non-tumoral cells
# Procedure: as §1, §2
# [7] = test system: caspases 3 and 7 on MCF-7 cells; test: Caspase-Glo 3/7 assay; type: cell-based, human; details: 50 μM, 24 h
# Procedure: To determine the cell death type induced by the most promising aryl-drimane esters, we evaluated their capacity to induce apoptosis through the activation of caspases 3 and 7 on MCF-7 cells. For this purpose, 6a, 6e, 6f, 8c, 8f, and 8g were incubated for 24 h on MCF-7 cells at a concentration of 50 μM, close to the IC50 values for cytotoxicity in most compounds. […] In summary, these drimane derivatives induced apoptosis in the MCF-7 cell line, showing a potential antitumoral effect.
# The activity of caspase 3/7 in treated MCF-7 cells was determined using a Caspase-Glo-3/7 Assay kit (Promega, UK—Cat. No G8090). The caspase-Glo 3/7 assay is a homogenous, luminescent assay that measures caspase-3 and -7 activities, both key-players in apoptosis. […] Luminescence was proportional to the amount of caspase present. MCF-7 cells (1 × 10^4 cells per well) were grown in a 96-well white plate and were allowed to adhere overnight. The cells were then treated for 24 h with the synthesized compounds (50 µM), with the inclusion of a blank as a control. After treatment, the Caspase-Glo® 3/7 was prepared according to the manufacturer’s guidelines. Briefly, 100 μL of Caspase-Glo 3/7 reagent was added to 100 μL of culture medium containing the cells previously treated in each well. The content was mixed gently by placing the plate on a shaker for 30 s, and the plate was incubated at room temperature in the dark for 1 h before luminescence was read on a luminometer (Berthold Sirius Single Tube Luminometer, Pforzheim, Germany). Fold change in caspase activity was obtained by first subtracting the luminescence value for the blank well from every other value, and then, expressing the average luminescence of each treatment as a fold change with respect to the average luminescence of the negative control.
# [8] = biological target: T1, Human recombinant Topoisomerase I (Homo sapiens, UniProt P11387); test: Topoisomerase I activity, relaxation of supercoiled DNA (pEGFP-N1); type: biochemical; details: 50 μM, agarose gel, result in words
# T1 construct: purchased Sigma-Aldrich
# T1 sequence (P11387 1-765): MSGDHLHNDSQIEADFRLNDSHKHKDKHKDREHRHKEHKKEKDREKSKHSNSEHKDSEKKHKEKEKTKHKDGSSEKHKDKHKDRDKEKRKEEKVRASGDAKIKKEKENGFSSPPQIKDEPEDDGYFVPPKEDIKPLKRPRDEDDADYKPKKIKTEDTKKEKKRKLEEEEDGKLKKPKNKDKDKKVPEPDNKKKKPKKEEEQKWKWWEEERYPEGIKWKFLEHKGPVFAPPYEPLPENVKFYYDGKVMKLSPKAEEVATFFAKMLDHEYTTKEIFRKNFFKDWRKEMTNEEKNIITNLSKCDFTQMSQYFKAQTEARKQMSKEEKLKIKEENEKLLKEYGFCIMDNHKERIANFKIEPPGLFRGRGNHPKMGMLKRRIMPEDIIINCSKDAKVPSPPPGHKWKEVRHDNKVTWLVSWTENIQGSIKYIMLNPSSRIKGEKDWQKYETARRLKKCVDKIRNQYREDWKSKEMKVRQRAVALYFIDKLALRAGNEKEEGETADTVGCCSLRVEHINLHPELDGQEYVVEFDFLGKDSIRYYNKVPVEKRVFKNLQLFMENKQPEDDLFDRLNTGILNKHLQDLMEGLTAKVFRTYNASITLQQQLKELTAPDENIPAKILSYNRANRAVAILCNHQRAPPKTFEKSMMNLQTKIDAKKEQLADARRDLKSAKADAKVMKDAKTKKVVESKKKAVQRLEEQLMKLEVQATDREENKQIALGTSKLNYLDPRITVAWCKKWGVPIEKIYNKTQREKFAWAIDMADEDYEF
# Procedure: In this experiment, daunorubicin was used as control due to this compound being reported early as a TOPI inhibitor [31]. First, the optimal concentration of these compounds for the DNA relaxation assays was established.
# Topoisomerase I activity was assayed by the relaxation of supercoiled DNA (pEGFP-N1) as the manufacturer’s instructions indicated. Human recombinant Topoisomerase I and buffer were from (Sigma-Aldrich). An amount of 2 μL of 10× topoisomerase I reaction buffer and 200 ng plasmid DNA and the indicated concentrations of compounds were incubated 30 min at 37 °C in Topo I buffer (500 mM Tris·HCl, pH 7.5, 1 M KCl, 10 mM dithiothreitol, 100 mM EDTA, 50 μg/mL acetylated bovine serum albumin (BSA)) in a total volume of 20 μL. The reaction was stopped by the addition of 5 μL of 5× loading dye (composition). Samples were electrophoresed on an 0.8% agarose gel without ethidium bromide for 2–3 h at 5 to 10 V/cm. The gel was stained with ethidium bromide and photographed with a UV transilluminator.
# [9] = test system: MCF-7 (breast adenocarcinoma); details: literature value, same experimental conditions; cited from earlier work
# [10] = test system: HT-29 (colorectal adenocarcinoma); design: method as in PMID 25412045; details: literature value, same experimental conditions; cited from earlier work
# [11] = test system: PC-3 (prostate adenocarcinoma); details: literature value, same experimental conditions; cited from earlier work
# [12] = test system: MCF-10 control cells (normal breast epithelium); details: literature value, same experimental conditions; cited from earlier work
"IC50 ([2]; Homo sapiens, MCF7, sulforhodamine B assay, 72 h of treatment, IC50 ± SD) [µM]","IC50 ([3]; Homo sapiens, HT-29, sulforhodamine B assay, 72 h of treatment, IC50 ± SD) [µM]","IC50 ([5]; Homo sapiens, sulforhodamine B assay, 72 h of treatment, IC50 ± SD) [µM]",SMILES,selectivity ratio at 72 h [1],Selectivity Index (SI) MCF-10/MCF-7 [2],Selectivity Index (SI) MCF-10/HT-29 [3],selectivity ratio at 72 h [4],Selectivity Index (SI) MCF-10/PC-3 [5],IC50 [6] [µM],caspases-3/7 activity over the control [7],inhibition of TOP1-induced DNA relaxation [8],IC50 [9] [µM],IC50 [10] [µM],IC50 [11] [µM],IC50 [12] [µM]
33.7 ± 1.3,56.9 ± 4,85.5 ± 7.1,"CC1=C(C(=O)Oc2cc(C)cc(O)c2)[C@@]2(C)CCCC(C)(C)C2CC1 (stereo partly drawn) [6a, 3-Hydroxy-5-methylphenyl-(8aS)-2,5,5,8a-tetramethyl-3,4,4a,5,6,7,8,8a-octahydronaphthalene-1-carboxylate]",100,2.0,1.2,20,0.8,67.2 ± 6.3,two-fold,more prominent,–,–,–,–
–,–,–,"COc1cccc2c1C(=O)c1c(O)c3c(c(O)c1C2=O)C[C@@](O)(C(C)=O)C[C@@H]3O[C@H]1C[C@H](N)[C@H](O)[C@H](C)O1 [Daunorubicin, reference compound]",–,28,0.6,–,23,–,–,modified the TOP1-induced DNA relaxation in a minor way than compounds 6a and 8c,0.33 ± 0.02,15.1 ± 0.5,0.41 ± 0.04,9.32 ± 1.01
